# Assay results as given in patent US20110003012A1, “TREATING PATIENTS WITH SUBARACHNOID HEMORRHAGE” (Duke University, priority 2007, published 2011).
# Like-named read-outs stand apart in the source and are kept apart here.
# What was measured:
# [1] = system: hemoglobin; experiment: S-nitrosylation of hemoglobin / blood NO after 3 days exposure to ENO (FIG. 5); assay type: in vivo; settings: 3 days exposure to 20 ppm ENO
# [2] = system: subarachnoid hemorrhage; experiment: Laser Doppler blood flow in MCA territory and blood pressure 7 days after SAH (Background Example 3); assay type: in vivo; settings: mice 7 days after SAH
# Protocol: Mice were subjected to subarachnoid hemorrhage induced by filament perforation of the right middle cerebral artery (MCA). Mice were allowed to recover for 7 days. The mice were then anesthetized and a laser Doppler flow probe was positioned over the brain within the territory perfused by the MCA and blood pressure was recorded. The animals were allowed to stabilize for 30 minutes (time=1-30 min).
# [3] = system: subarachnoid hemorrhage; settings: human, in vivo
# [4] = Blood pressure with or without ENO inhalation in normal mice; settings: inhalation of 20 ppm, n=5 each group
# [5] = system: subarachnoid hemorrhage induced vasospasm; experiment: Intraluminal filament-induced SAH in mice, ENO inhalation for 3 days (Background Example 2)
# [6] = system: vasospasm; settings: cited from earlier work
# [7] = SAH mice, 20 ppm ENO inhalation 3 days, p<0.01
# [8] = inhalation at 20 ppm for 3 days
structure (smiles),measurement,setting,value
"CCON=O [ENO, ethyl nitrite]",Red blood cell lysate nitrosothiol (SNO) increase,[1]; FIG. 5A,approximately 4 fold
same,Total red blood cell NO,[1]; FIG. 5B,increase
same,Change in serum total NO,[1]; FIG. 5C,negligible
same,Mean arterial pressure,[2]; 20 ppm ENO added to inspiratory gas,remained unchanged
same,"Blood flow increase (laser Doppler, MCA territory)",[2]; onset of 20 ppm ENO,25%
same,Cerebral infarction,[3],prevented
same,Vasospasm,[3],does not occur
same,Change in blood pressure,[4],did not cause a change
same,Rotarod performance,"[5]; 3 days post-SAH, inhalation of 20 ppm, p=0.06",a trend for improvement
same,Arterial narrowing (large vessel spasm),[5]; [7],improved
same,Decreased forebrain ROD (small vessel spasm),[5]; [7],improved
same,Subarachnoid hemorrhage induced vasospasm,[5]; [8],attenuated
same,Systemic hypotension,[5]; [8],without causing systemic hypotension
same,Effect in sham surgery mice,"[5]; sham surgery, 20 ppm inhalation, n=5 each group, p=0.9",no effect
CCCCON=O [butyl nitrite],Cerebral infarction,[3]; iv,prevented
same,Mean arterial blood pressure reduction,[3]; iv,≤ 10%
same,Vasospasm,[3]; iv,does not occur
O=NO [sodium nitrite],Vasospasm compared to control,"[6]; both regimens: low dose infusion plus bolus, or higher dose infusion without bolus",reduced vasospasm
same,Vasospasm reduced to,"[6]; higher dose infusion, no bolus, two of three cases",20%
same,Transient blood pressure reduction,"[6]; lower dose infusion over 24 hours plus bolus, after bolus",more than 15%
